pIC50: −log10 of the molar value.
target: T1, human CTPS1 (Homo sapiens, UniProt P17812); experiment: Human CTPS1 enzyme inhibition (ADP-Glo Max assay); type: biochemical; settings: Table 23; ADP-Glo Max assay; read-out: CTPS1 (Human CTPS1 Enzyme Inhibition data grouped by potency range, IC50)
T1 construct: purchased Proteros biostructures GmbH
T1 sequence (P17812 1-591): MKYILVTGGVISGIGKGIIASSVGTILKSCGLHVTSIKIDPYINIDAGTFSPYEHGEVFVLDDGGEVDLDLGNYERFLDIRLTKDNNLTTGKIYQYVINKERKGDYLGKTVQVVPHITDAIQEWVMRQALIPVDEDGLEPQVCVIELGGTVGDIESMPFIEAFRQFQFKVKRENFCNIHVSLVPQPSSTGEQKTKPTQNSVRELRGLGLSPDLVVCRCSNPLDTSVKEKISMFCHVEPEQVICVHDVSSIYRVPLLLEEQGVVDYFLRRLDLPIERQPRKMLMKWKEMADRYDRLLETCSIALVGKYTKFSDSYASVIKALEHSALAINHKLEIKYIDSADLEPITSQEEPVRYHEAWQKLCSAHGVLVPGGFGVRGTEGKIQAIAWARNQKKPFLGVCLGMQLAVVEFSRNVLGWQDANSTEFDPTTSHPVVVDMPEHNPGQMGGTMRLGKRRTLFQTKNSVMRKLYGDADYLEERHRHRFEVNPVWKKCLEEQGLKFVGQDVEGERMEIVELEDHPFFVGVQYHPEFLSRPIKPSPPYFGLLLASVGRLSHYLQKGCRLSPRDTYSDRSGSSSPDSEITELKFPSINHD
Experimental: Biological Example 1—Human CTPS1 Enzyme Inhibition
The enzyme inhibitory activities of compounds invented against the target of interest were determined using the ADP-Glo™ Max assay (Promega, UK). Assays for human CTPS1 were performed in 1× assay buffer containing 50 mM Tris, 10 mM MgCl2, 0.01% Tween-20, pH to 8.0 accordingly. Finally, immediately before use, L-cysteine was added to the 1× assay buffer to a final concentration of 2 mM. All reagents are from Sigma-Aldrich unless specified otherwise. Human full length active C-terminal FLAG-Hiss-tag CTPS1 (UniProtKB-P17812, CTPS[1-591]-[…]) was obtained from Proteros biostructures GmbH.
3× human CTPS1 protein was prepared in 1× assay buffer to the final working protein concentration required for the reaction. A 2 uL volume per well of 3× human CTPS1 protein was mixed with 2 uL per well of 3× test compound (compound prepared in 1× assay buffer to an appropriate final 3× compound concentration respective to the concentration response curve designed for the compounds under test) for 10 minutes at 25° C. The enzymatic reaction was then initiated by addition of a 2 uL per well volume of a pre-mixed substrate mix (UltraPure ATP from ADP-Glo™ Max kit (0.31 mM), GTP (0.034 mM), UTP (0.48 mM) and L-glutamine (0.186 mM)) and the mixture was incubated for an appropriate amount of time within the determined linear phase of the reaction at 25° C. under sealed plate conditions with constant agitation at 500 revolutions per minute (rpm). ADP-Glo™ Max reagent was added for 60 minutes (6 μL per well) and subsequently ADP-Glo™ Max development reagent was added for 60 minutes (12 uL per well) prior to signal detection in a microplate reader (EnVision® Multilabel Reader, Perkin Elmer). Following each reagent addition over the course of the assay, assay plates were pulse centrifuged for 30 seconds at 500 rpm.
In all cases, the enzyme converts ATP to ADP and the ADP-Glo™ Max reagent subsequently depletes any remaining endogenous ATP in the reaction system. The ADP-Glo™ Max detection reagent converts the ADP that has been enzymatically produced back into ATP and using ATP as a substrate together with luciferin for the enzyme luciferase, light is generated which produces a detectable luminescence. […] The percentage inhibition produced by each concentration of compound was calculated using the equation shown below: […]
(§1) Percentage inhibition was then plotted against compound concentration, and the 50% inhibitory concentration (IC50) was determined from the resultant concentration-response curve.

SMILES | pIC50
CC(C)Oc1cncc(-c2ccc(NC(=O)C(C)(C)c3ccnc(NS(=O)(=O)C4CC4)n3)cc2)c1 [Example P58] | 6.00 to 7.00
CCOc1cncc(-c2ccc(NC(=O)C(C)(C)c3ccnc(NS(=O)(=O)C4CC4)n3)cn2)n1 [Example P126] | ≥ 7.00
CCOc1cncc(-c2ccc(NC(=O)C(C)(C)c3cc(C(F)(F)F)nc(NS(=O)(=O)C4CC4)n3)c(F)c2)n1 [Example P130] | 6.00 to 7.00
CCOc1cncc(-c2ccc(NC(=O)C(CC)(CC)c3ccnc(NS(=O)(=O)C4CC4)n3)cc2)n1 [Example P10] | ≥ 7.00
COc1cncc(-c2ccc(NC(=O)Cc3cccc(NS(=O)(=O)C4CC4)n3)cc2)n1 [Example P173] | ≥ 7.00
COc1cncc(-c2ccc(NC(=O)C(C)(C)c3cccc(NS(=O)(=O)C4CC4)n3)cc2)n1 [Example P184] | 6.00 to 7.00
CC(C)(C(=O)Nc1ccc(-c2cccnc2)cn1)c1ccnc(NS(=O)(=O)C2CC2)n1 [Example P29] | 5.00 to 6.00
CCOc1cncc(-c2ccc(NC(=O)C(C)(C)c3ccnc(NS(=O)(=O)C4CC4)n3)c(OC)c2)n1 [Example P49] | ≥ 7.00
O=C(Cc1cccc(NS(=O)(=O)C2CC2)n1)Nc1ccc(-c2cccnc2)cc1 [Example P171] | 5.00 to 6.00
O=C(Cc1nc(NS(=O)(=O)C2CC2)ncc1F)Nc1ccc(-c2cccnc2)cc1 [Example P15] | 5.00 to 6.00
CC(C)Oc1cncc(-c2ccc(NC(=O)C(C)(C)c3ccnc(NS(=O)(=O)C4CCC4)n3)c(F)c2)n1 [Example P23] | 6.00 to 7.00

Other lines, results leading:

pIC50 | SMILES
5.00 to 6.00 | CC(C)(C(=O)Nc1ccc(-c2cncc(Cl)c2)cc1)c1cccc(NS(=O)(=O)C2CC2)n1 [Example P176]
≥ 7.00 | CCOc1cncc(-c2ccc(NC(=O)C(F)(c3ccnc(NS(=O)(=O)C4CC4)n3)C(C)C)nc2)n1 (stereo not shown) [Example P152]
6.00 to 7.00 | CC(C)(C(=O)Nc1ccc(-c2cncc(C(F)(F)F)c2)cc1)c1ccnc(NS(=O)(=O)C2CC2)n1 [Example P4, 2-(2-(Cyclopropanesulfonamido)pyrimidin-4-yl)-2-methyl-N-(4-(5-(trifluoromethyl)pyridin-3-yl)phenyl)propanamide]
6.00 to 7.00 | CCOc1cncc(-c2ccc(NC(=O)C(C)(C)c3cc(C)nc(NS(=O)(=O)C4CC4)n3)cc2)n1 [Example P134]
6.00 to 7.00 | Cc1cncc(-c2ccc(NC(=O)C(C)(C)c3ccnc(NS(=O)(=O)C4CC4)n3)cc2)c1 [Example P54]
6.00 to 7.00 | CC(C)(C(=O)Nc1ccc(-c2cncc(C(F)(F)F)n2)cc1)c1ccnc(NS(C)(=O)=O)n1 [Example P80]
6.00 to 7.00 | O=C(Cc1cccc(NS(=O)(=O)C2CC2)n1)Nc1ccc(-c2cncc(Cl)c2)cc1 [Example P167]
5.00 to 6.00 | O=C(Cc1cccc(NS(=O)(=O)C2CC2)n1)Nc1ccc(-c2cnccn2)cc1 [Example P174]
≥ 7.00 | O=C(Cc1ccnc(NS(=O)(=O)C2CC2)n1)Nc1ccc(-c2cncc(C(F)(F)F)n2)cc1 [Example P8, 2-(2-(Cyclopropanesulfonamido)pyrimidin-4-yl)-N-(4-(6-(trifluoromethyl)pyrazin-2-yl)phenyl)acetamide]
6.00 to 7.00 | CCOc1cncc(-c2cc(C)c(NC(=O)C(C)(C)c3ccnc(NS(=O)(=O)C4CC4)n3)cc2F)n1 [Example P45]
≥ 7.00 | CC(C)(C(=O)Nc1ccc(-c2cncc(C(F)(F)F)n2)cc1)c1ccnc(NS(=O)(=O)C2CC2)n1 [Example P64]
6.00 to 7.00 | CCOc1cncc(-c2cc(OC)c(NC(=O)C(C)(C)c3ccnc(NS(=O)(=O)C4CC4)n3)cc2F)n1 [Example P48]
5.00 to 6.00 | CCS(=O)(=O)Nc1cncc(CC(=O)Nc2ccc(-c3cccnc3)cc2)n1 [Example P193]

same assay, conditions: Table 24; ADP-Glo Max assay; read-out: CTPS1 (Human CTPS1 Enzyme Inhibition data grouped by potency range, IC50)

pIC50 | SMILES
6.00 to 7.00 | CCOc1cncc(-c2ccc(CNC(CC)c3ccnc(NS(=O)(=O)C4CC4)n3)c(F)c2)n1 (stereo not shown) [Example P235, N-(4-(1-((4-(6-Ethoxypyrazin-2-yl)-2-fluorobenzyl)amino)propyl)pyrimidin-2-yl)cyclopropanesulfonamide]
6.00 to 7.00 | CCOc1cncc(-c2ccc(CNC3(c4ccnc(NS(=O)(=O)C5CC5)n4)CC3)nc2)n1 [Example P254]

system: human CTPS1 versus CTPS2; experiment: Human CTPS1 versus CTPS2 selectivity assessment by RapidFire/MS analysis; type: biochemical; settings: Table 26
Experimental: Biological Example 2—RapidFire/MS-Based Enzyme Selectivity Assays.
Human CTPS1 Versus CTPS2 Selectivity Assessment by RapidFire/MS Analysis.
The enzyme inhibitory activities against each target isoform of interest may be determined for the compounds of the invention using an optimised RapidFire high-throughput mass spectrometry (RF/MS) assay format. RF/MS assays for both human CTPS1 and CTPS2 may be performed in assay buffer consisting of 50 mM HEPES (Merck), 20 mM MgCl2, 5 mM KCl, 1 mM DTT, 0.01% Tween-20, pH to 8.0 accordingly. Human full-length active C-terminal FLAG-His-tag CTPS1 (UniProtKB-P17812, CTPS[1-591]-[…]) may be obtained from Proteros biostructures GmbH. Human full length active C-terminal FLAG-His-Avi tagged CTPS2 (UniProtKB-Q9NRF8, CTPS2 [1-586]-[…]) may be obtained from Harker Bio.
Human CTPS (1 or 2) protein may be prepared in 1× assay buffer to the final working protein concentration required for the reaction. A 2 uL volume per well of 2×CTPS (1 or 2) protein may be mixed with 40 nL of compound using acoustic (ECHO) delivery and incubated for 10 minutes at 25° C. Each isoform enzymatic reaction may be subsequently initiated by addition of 2 uL per well of a 2× substrate mix in assay buffer. For hCTPS1: ATP (0.3 mM), UTP (0.2 mM), GTP (0.07 mM) and L-glutamine (0.1 mM). For hCTPS2: ATP (0.1 mM), UTP (0.04 mM), GTP (0.03 mM) and L-glutamine (0.1 mM). Each mixture may be incubated for an appropriate amount of time per isoform within the determined linear phase of the reaction at 25° C. A 60 uL volume of stop solution (1% formic acid with 0.5 uM ^13C9-^15N3-CTP in H2O) may be added and the plate immediately heat-sealed and centrifuged for 10 minutes at 4,000 rpm. Following centrifugation, plates may be loaded onto the Agilent RapidFire microfluidic solid phase extraction system coupled to an AP14000 triple quadrupole mass spectrometer (RF/MS) for analysis.
In all cases, the enzyme converts UTP to CTP. Highly specific and sensitive multiple reaction monitoring (MRM) MS methods may be optimised for the detection of the enzymatic reaction product, CTP, and the stable isotope labelled product standard ^13C9-^15N3-CTP. Readout for data analysis may be calculated as the ratio between the peak area of the product CTP and the internal standard ^13C9-^15N3-CTP. For data reporting, the following equation may be used: […]
For each screening plate, the means of the negative (DMSO) and positive control values were used for the calculation of the respective assay window (S/B) and Z′ values. The median of the respective control values was used for calculation of percent inhibition according to the following equation: […]
as §1
Fold selectivity between CTPS1 and CTPS2 was subsequently calculated according to the following equation: […]

SMILES | Selectivity (fold selectivity between CTPS1 and CTPS2)
CCOc1cncc(-c2ccc(NC(=O)C(F)(CC)c3cncc(NS(=O)(=O)C4CC4)n3)nc2)n1 (single isomer, unassigned) [Example P207] | + (2-30 fold (+))
CCOc1cncc(-c2ccc(NC(=O)C(F)(CC)c3cncc(NS(=O)(=O)C4CC4)n3)nc2)n1 (stereo not shown) [Example P200] | ++ (>30-60 fold (++))
CCOc1cncc(-c2ccc(NC(=O)C(CC)c3cccc(NS(=O)(=O)C4CC4)n3)cc2)n1 (stereo not shown) [Example P191] | ++ (>30-60 fold (++))
CCC(C(=O)Nc1ccc(-c2cncc(OC)n2)cc1F)c1ccnc(NS(=O)(=O)C2CC2)n1 (stereo not shown) [Example P95] | + (2-30 fold (+))
CCOc1cncc(-c2ccc(NC(=O)C(C)(OC)c3cncc(NS(=O)(=O)C4CC4)n3)nc2)n1 (stereo not shown) [Example P205a] | +++ (>60 fold (+++))
CCOc1cncc(-c2ccc(NC(=O)C(CC)c3ccnc(NS(=O)(=O)C4CC4)n3)c(F)c2)n1 (stereo not shown) [Example P96] | + (2-30 fold (+))
CCC(C(=O)Nc1ccc(-c2cncc(OCC(F)(F)F)n2)cc1F)c1ccnc(NS(=O)(=O)C2CC2)n1 (stereo not shown) [Example P98] | +++ (>60 fold (+++))
CCOc1cncc(-c2ccc(NC(=O)C(CC)c3cccc(NS(=O)(=O)C4CC4)n3)nc2)n1 (stereo not shown) [Example P188] | ++ (>30-60 fold (++))

— patent US20230002352A1, “SULFONAMIDE DERIVATIVES AS CTPS1 INHIBITORS” (Step Pharma S.A.S., priority 2019, published 2023)
